The supplement of paper PMC9103864

What was measured:
[1] = tested on: BMSC (primary human bone marrow mesenchymal stromal cells); assay: drug sensitivity score (DSS); higher = more sensitive
[2] = tested on: BMSC (primary human bone marrow mesenchymal stromal cells); assay: absolute EC50 for viability; higher = less sensitive

| SMILES | drug sensitivity score [1] | absolute EC50 for viability [2] [µM] |
| --- | --- | --- |
| CO[C@H]1C[C@@H]2CC[C@@H](C)[C@@](O)(O2)C(=O)C(=O)N2CCCC[C@H]2C(=O)O[C@H]([C@H](C)C[C@@H]2CC[C@@H](OP(C)(C)=O)[C@H](OC)C2)CC(=O)[C@H](C)/C=C(\C)[C@@H](O)[C@@H](OC)C(=O)[C@H](C)C[C@H](C)/C=C/C=C/C=C/1C [Ridaforolimus] | 7.6 | > 0.1 |
| CN1CCN(c2nc(C3=C(c4c[nH]c5ccccc45)C(=O)NC3=O)c3ccccc3n2)CC1 [Sotrastaurin] | 2.8 | > 10 |
| CCS(=O)(=O)N1CCN(c2ccc(Nc3ncc(C(N)=O)c(NC4CC4)n3)cc2)CC1 [Cerdulatinib] | 5.1 | > 10 |
| Cc1cnc(Nc2ccc(OCCN3CCCC3)cc2)nc1Nc1cccc(S(=O)(=O)NC(C)(C)C)c1 [Fedratinib] | 9.3 | 1.47 |
| CC(C)(C#N)c1cc(Cn2cncn2)cc(C(C)(C)C#N)c1 [Anastrozole] | 0 | > 10 |
| COC(=O)C[C@](O)(CCCC(C)(C)O)C(=O)O[C@@H]1C(OC)=C[C@]23CCCN2CCc2cc4c(cc2[C@H]13)OCO4 [Omacetaxine] | 18.6 | 0.219 |
| C=CC(=O)N1CCC(Oc2cc3c(Nc4ccc(Cl)c(Cl)c4F)ncnc3cc2OC)CC1 [Poziotinib] | 4.2 | > 1 |
| COC(=O)N[C@@H](C)CNc1nccc(-c2cn(C(C)C)nc2-c2cc(Cl)cc(NS(C)(=O)=O)c2F)n1 [Encorafenib] | 0 | > 1 |
| O=C(c1cccc(Cl)c1F)N1CCN(Cc2cccc(Nc3nccs3)n2)CC1 [MK-8745] | 1.3 | > 10 |
| N#CC1(c2ccc(NC(=O)c3cccnc3NCc3ccncc3)cc2)CCCC1 [Apatinib] | 0.1 | > 10 |
| COc1cc(C(=O)O)ccc1NC(=O)[C@@H]1N[C@@H](CC(C)(C)C)[C@](C#N)(c2ccc(Cl)cc2F)[C@H]1c1cccc(Cl)c1F [Idasanutlin] | 13.3 | 0.576 |
| CCS(=O)(=O)N1CC(CC#N)(n2cc(-c3ncnc4[nH]ccc34)cn2)C1 [Baricitinib] | 0.1 | > 2.5 |
| Nc1ccn([C@@H]2O[C@H](CO)[C@@H](O)[C@@H]2O)c(=O)n1 [Cytarabine] | 1.2 | > 10 |
| CC[C@@H]1C(=O)OC[C@@H]1Cc1cncn1C [Pilocarpine] | 0 | > 40 |
| Cc1sc2c(c1C)C(c1ccc(Cl)cc1)=N[C@@H](CC(=O)Nc1ccc(O)cc1)c1nnc(C)n1-2 [Birabresib] | 4.9 | > 10 |
| CN(Cc1cnc2nc(N)nc(N)c2n1)c1ccc(C(=O)N[C@@H](CCC(=O)O)C(=O)O)cc1 [Methotrexate] | 4.7 | > 5 |
| Nc1ncnc2c1nc(Cl)n2[C@@H]1O[C@H](CO)[C@@H](O)[C@H]1O [8-chloro-adenosine] | 10.9 | 5.35 |
| CN(C)C(=N)NC(=N)N [Metformin] | 0 | > 100 |
| O=S(=O)(c1cccc2c(O)nccc12)N1CCCNCC1 [Hydroxyfasudil] | 1 | > 19 |
| Cc1c(-c2ccc(N3CCc4cccc(C(=O)Nc5nc6ccccc6s5)c4C3)nc2C(=O)O)cnn1CC12CC3CC(CC(C3)C1)C2 | 0 | > 1 |

| SMILES | drug sensitivity score [1] | absolute EC50 for viability [2] [µM] |
| --- | --- | --- |
| Nc1nc(Cl)nc2c1ncn2[C@@H]1O[C@H](CO)[C@@H](O)[C@@H]1F [Clofarabine] | 11.4 | 0.739 |
| CC(C)C(=O)Nc1ccc([N+](=O)[O-])c(C(F)(F)F)c1 [Flutamide] | 0 | > 10 |
| CCOC(=O)CCNc1cc(N2CCc3ccccc3CC2)nc(-c2ccccn2)n1 [GSK-J4] | 2.8 | 73 |
| O=C(Nc1cccnc1)N1CCC(Cc2cccc(Oc3ccc(C(F)(F)F)cn3)c2)CC1 [PF-3845] | 0 | 9.93 |
| CNC(=O)c1ccccc1Sc1ccc2c(/C=C/c3ccccn3)n[nH]c2c1 [Axitinib] | 7.9 | > 10 |
| CNCc1ccc(-c2[nH]c3cc(F)cc4c3c2CCNC4=O)cc1 [Rucaparib] | 2.3 | > 10 |
| CCN(CC)C(=S)SSC(=S)N(CC)CC [Disulfiram] | 0 | > 50 |
| Cn1c(Nc2ccc(C(F)(F)F)cc2)nc2cc(Oc3ccnc(-c4ncc(C(F)(F)F)[nH]4)c3)ccc21 [RAF-265] | 2.5 | > 1 |
| CC[C@H](Nc1ncnc2[nH]cnc12)c1nc2cccc(F)c2c(=O)n1-c1ccccc1 [Idelalisib] | 2.7 | > 10 |
| CN1C(=O)N[C@H](Cc2c[nH]c3c(Cl)cccc23)C1=O [Necrostatin 2] | 0 | > 10 |
| O=C(Nc1ccc2[nH]nc(-c3ccncc3)c2c1)[C@@H]1CCN(CC(=O)N2CCN(c3ccc(-c4ncccn4)cc3)CC2)C1 | 4 | > 10 |
| C[C@@H]1CN(CC(=O)Nc2ccc3c(c2)Cc2cccc(-c4cc(=O)cc(N5CCOCC5)o4)c2S3)C[C@H](C)O1 | 0.6 | > 25 |
| CC[C@H](C)C(=O)O[C@H]1C[C@@H](C)C=C2C=C[C@H](C)[C@H](CC[C@@H]3C[C@@H](O)CC(=O)O3)[C@H]21 [Lovastatin] | 0 | > 10 |
| CC(C)(C)Cn1c(N)nc2ccc(-c3[nH]c(C(C)(C)C)nc3-c3ccc(F)cc3)nc21 [Ralimetinib] | 0.7 | > 10 |
| CS(=O)(=O)N1CCN(Cc2cc3nc(-c4cccc5[nH]ncc45)nc(N4CCOCC4)c3s2)CC1 [Pictilisib] | 11 | 1.28 |
| CN1CCN(C2CCN(C(=O)Nc3cc(Oc4ccc(NC(=O)C5(C(=O)Nc6ccc(F)cc6)CC5)c(F)c4)ccn3)CC2)CC1 [Golvatinib] | 2.7 | > 2.5 |
| NC(=O)c1cccc2cn(-c3ccc([C@@H]4CCCNC4)cc3)nc12 [Niraparib] | 0.8 | > 10 |
| C[C@@H](Oc1ccc2[nH]nc(/C=C/c3cnn(CCO)c3)c2c1)c1c(Cl)cncc1Cl | 3.6 | > 1 |
| CC(C)(C)c1cc(NC(=O)Nc2ccc(Oc3ccnc4[nH]c(=O)cnc34)cc2F)n(-c2ccccc2)n1 | 0 | > 25 |
| CC(C)(C)c1nc(-c2cccc(NS(=O)(=O)c3c(F)cccc3F)c2F)c(-c2ccnc(N)n2)s1 [Dabrafenib] | 0 | > 2.5 |

| SMILES | drug sensitivity score [1] | absolute EC50 for viability [2] [µM] |
| --- | --- | --- |
| CC(C)(O)CNc1nc(Nc2ccnc(C(F)(F)F)c2)nc(-c2cccc(C(F)(F)F)n2)n1 [Enasidenib] | 0 | > 10 |
| CCCCCCCCCCCCCCCCOP(=O)([O-])OCC[N+](C)(C)C [Miltefosine] | 2.7 | 78.2 |
| CCS(=O)(=O)Nc1ccc(Oc2ccc(F)cc2F)c(-c2cn(C)c(=O)c3[nH]ccc23)c1 [Mivebresib] | 13 | 2.71 |
| O=C(O)CC1CC(c2ccccc2)=NO1 (stereo unspecified) [VGX-1027] | -0.1 | > 10 |
| Cc1cc(OCc2nnc(SC3CCCC3)n2-c2cccnc2)ccc1-c1ccc(S(C)(=O)=O)cc1 [NMS-873] | 4.1 | 5.4 |
| Cc1sc2c(c1C)C(c1ccc(Cl)cc1)=N[C@@H](CC(=O)OC(C)(C)C)c1nnc(C)n1-2 [JQ1] | 5.3 | > 10 |
| N#CC[C@H](C1CCCC1)n1cc(-c2ncnc3[nH]ccc23)cn1 [Ruxolitinib] | 0.2 | > 10 |
| CN[C@@H]1C[C@H]2O[C@@](C)([C@@H]1OC)n1c3ccccc3c3c4c(c5c6ccccc6n2c5c31)C(=O)N[C@H]4O [UCN-01] | 13.3 | 0.643 |
| CNC(=O)c1cc(COc2nnc(Nc3ccc(Cl)cc3)c3ccoc23)ccn1 [Telatinib] | 4.2 | > 10 |
| Cc1sc2c(c1C)C(c1ccc(Cl)cc1)=N[C@@H](CC(=O)Nc1ccc(OCCOCCOCCOCCNc3cccc4c3C(=O)N(C3CCC(=O)NC3=O)C4=O)cc1)c1nnc(C)n1-2 (stereo partly specified) [ARV-825] | 10.1 | 0.036 |
| NCC(=O)Nc1ccc(-n2nc(C(F)(F)F)cc2-c2ccc3c(ccc4ccccc43)c2)cc1 | 0.5 | > 25 |
| CO[C@H]1C[C@@H]2CC[C@@H](C)[C@@](O)(O2)C(=O)C(=O)N2CCCC[C@H]2C(=O)O[C@H]([C@H](C)C[C@@H]2CC[C@@H](OCCO)[C@H](OC)C2)CC(=O)[C@H](C)/C=C(\C)[C@@H](O)[C@@H](OC)C(=O)[C@H](C)C[C@H](C)/C=C/C=C/C=C/1C [Everolimus] | 5.2 | > 0.1 |
| COc1cc2c(Nc3ccc(Cl)c(Cl)c3F)ncnc2cc1OC[C@@H]1C[C@@H]2CN(C)C[C@@H]2C1 [Tesevatinib] | 4.1 | > 1 |
| CNC(=O)c1ccccc1Nc1cc(Nc2ccc(N3CCOCC3)cc2OC)ncc1C(F)(F)F [VS-4718] | 5.6 | > 10 |
| CCn1cc(-c2ccnc3[nH]c(-c4cccc(CN(C)C)c4)cc23)c(-c2ccc(NC(=O)N(C)C)cc2)n1 | 1.5 | > 1 |
| c1ccc2n[se]nc2c1 [BCI] | 14.9 | 2.55 |
| CN(C)c1cc2c(cc1Sc1nc3c(N)nccc3n1CCNCC(C)(C)C)OCO2 [CUDC-305] | 8.8 | 1.15 |
| Oc1nc(-c2ccc(C(F)(F)F)cc2)nc2c1CSCC2 [XAV-939] | 1.5 | > 10 |
